The text below walks through data of ChEMBL document CHEMBL5550090, “Synthesis and biological evaluation of 1H-pyrrolo[3,2-g]isoquinolines” (Bioorg Med Chem, 2024).

Assay [1] has as its target Casein kinase I isoform epsilon (Homo sapiens) (UniProt P49674). The assay can be described thus: Inhibition of human recombinant CK1 epsilon expressed in baculovirus-infected Sf9 cells assessed as enzyme residual activity using RRKHAAIGSpAYSITA as substrate at 1 uM incubated for 30 mins in presence of ATP by ADP-Glo kinase assay. Background: ADP-Glo turns the ADP formed in a reaction into a luminescent signal.

For assay [2], the target named is Glycogen synthase kinase-3 beta (Homo sapiens) (UniProt P49841). The assay can be described thus: Inhibition of human recombinant GSK-3 beta expressed in baculovirus-infected Sf9 cells assessed as enzyme residual activity using YRRAAVPPSPSLSRHSSPHQSpEDEEE as substrate at 1 uM incubated for 30 mins in presence of ATP by ADP-Glo kinase assay.
Sequence of Glycogen synthase kinase-3 beta (Homo sapiens) (P49841 whole entry, looked up): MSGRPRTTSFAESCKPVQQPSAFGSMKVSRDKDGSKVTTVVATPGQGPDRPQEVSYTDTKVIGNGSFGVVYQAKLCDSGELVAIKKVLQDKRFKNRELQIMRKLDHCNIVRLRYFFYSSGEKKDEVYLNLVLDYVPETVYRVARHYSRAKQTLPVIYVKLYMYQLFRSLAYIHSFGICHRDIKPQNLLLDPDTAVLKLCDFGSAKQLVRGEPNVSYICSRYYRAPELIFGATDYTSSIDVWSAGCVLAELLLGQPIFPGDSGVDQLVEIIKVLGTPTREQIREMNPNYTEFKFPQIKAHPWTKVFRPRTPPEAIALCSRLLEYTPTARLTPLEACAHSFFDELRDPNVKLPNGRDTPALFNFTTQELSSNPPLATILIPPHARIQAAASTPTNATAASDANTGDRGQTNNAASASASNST
Assay [3] concerns the target T1, Cyclin-dependent kinase 5/CDK5 activator 1 (Homo sapiens) (UniProt Q00535+Q15078). The assay can be described thus: Inhibition of human recombinant CDK5/p25 expressed in bacteria assessed as enzyme residual activity using histone H1 as substrate at 1 uM incubated for 30 mins in presence of ATP by ADP-Glo kinase assay.
Assay [4] addresses T2, Serine/threonine-protein kinase pim-1 (Homo sapiens, UniProt P11309). The assay can be described thus: Inhibition of human recombinant PIM-1 expressed in bacteria assessed as enzyme residual activity using histone H1 as substrate at 1 uM incubated for 30 mins in presence of ATP by ADP-Glo kinase assay.
Assay [5] has as its target Casein kinase I isoform epsilon (Homo sapiens) (UniProt P49674). The assay can be described thus: Inhibition of human recombinant CK1 epsilon expressed in baculovirus-infected Sf9 cells assessed as enzyme residual activity using RRKHAAIGSpAYSITA as substrate at 10 uM incubated for 30 mins in presence of ATP by ADP-Glo kinase assay.
Assay [6] addresses Dual specificity protein kinase CLK1 (Mus musculus) (UniProt P22518). The assay is described as follows: Inhibition of recombinant mouse CLK1 expressed in bacteria assessed as enzyme residual activity using GRSRSRSRSRSR as substrate at 10 uM incubated for 30 mins in presence of ATP by ADP-Glo kinase assay.
Assay [7] shares this target. The assay is described as follows: Inhibition of recombinant mouse CLK1 expressed in bacteria assessed as enzyme residual activity using GRSRSRSRSRSR as substrate at 1 uM incubated for 30 mins in presence of ATP by ADP-Glo kinase assay.
The target of assay [8] is T3, CDK9/cyclin T1 (Homo sapiens) (UniProt O60563+P50750). The assay is described as follows: Inhibition of human recombinant CDK9/cyclin T expressed in baculovirus-infected Sf9 cells assessed as enzyme residual activity using YSPTSPSYSPTSPSYSPTSPSKKKK as substrate at 10 uM incubated for 30 mins in presence of ATP by ADP-Glo kinase assay.
For assay [9], the target named is T3, CDK9/cyclin T1 (Homo sapiens). The assay can be described thus: Inhibition of human recombinant CDK9/cyclin T expressed in baculovirus-infected Sf9 cells assessed as enzyme residual activity using YSPTSPSYSPTSPSYSPTSPSKKKK as substrate at 1 uM incubated for 30 mins in presence of ATP by ADP-Glo kinase assay.
Assay [10] addresses Dual specificity tyrosine-phosphorylation-regulated kinase 1A (Rattus norvegicus) (UniProt Q63470). The assay can be described thus: Inhibition of recombinant rat DYRK1A kinase domain (1 to 499 residues) expressed in bacteria assessed as enzyme residual activity using KKISGRLSPIMTEQ as substrate at 1 uM incubated for 30 mins in presence of ATP by ADP-Glo kinase assay.
Assay [11] has the same target. The assay can be described thus: Inhibition of recombinant rat DYRK1A kinase domain (1 to 499 residues) expressed in bacteria assessed as enzyme residual activity using KKISGRLSPIMTEQ as substrate at 10 uM incubated for 30 mins in presence of ATP by ADP-Glo kinase assay.
Assay [12] deals with T2, Serine/threonine-protein kinase pim-1. The assay is described as follows: Inhibition of human recombinant PIM-1 expressed in bacteria assessed as enzyme residual activity using histone H1 as substrate at 10 uM incubated for 30 mins in presence of ATP by ADP-Glo kinase assay.
In assay [13] the target is T4, Serine/threonine-protein kinase haspin (Homo sapiens, UniProt Q8TF76).
T4 sequence (Q8TF76 whole entry): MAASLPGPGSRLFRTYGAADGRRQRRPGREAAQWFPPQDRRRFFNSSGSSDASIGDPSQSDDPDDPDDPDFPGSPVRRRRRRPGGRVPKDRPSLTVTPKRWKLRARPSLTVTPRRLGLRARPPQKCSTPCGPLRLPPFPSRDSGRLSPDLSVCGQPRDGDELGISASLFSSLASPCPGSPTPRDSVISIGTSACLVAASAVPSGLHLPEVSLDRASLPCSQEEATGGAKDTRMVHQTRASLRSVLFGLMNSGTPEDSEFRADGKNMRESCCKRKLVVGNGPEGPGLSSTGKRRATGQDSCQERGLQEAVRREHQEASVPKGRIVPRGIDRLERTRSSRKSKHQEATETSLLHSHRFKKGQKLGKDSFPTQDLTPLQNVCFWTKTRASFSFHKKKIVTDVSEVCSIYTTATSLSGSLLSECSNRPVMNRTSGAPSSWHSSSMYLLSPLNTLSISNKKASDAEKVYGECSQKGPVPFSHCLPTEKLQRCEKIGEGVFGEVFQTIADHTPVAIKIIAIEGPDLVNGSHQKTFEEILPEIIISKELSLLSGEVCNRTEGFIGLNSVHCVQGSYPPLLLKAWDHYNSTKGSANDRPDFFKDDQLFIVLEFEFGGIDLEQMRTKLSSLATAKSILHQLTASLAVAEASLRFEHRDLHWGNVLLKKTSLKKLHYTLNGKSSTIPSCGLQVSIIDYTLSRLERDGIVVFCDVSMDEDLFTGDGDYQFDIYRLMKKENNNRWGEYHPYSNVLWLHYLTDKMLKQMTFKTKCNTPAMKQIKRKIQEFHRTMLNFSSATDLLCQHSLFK
The assay is described as follows: Inhibition of recombinant human Haspin kinase domain (470 to 798 residues) expressed in bacteria using histone H3 (1 to 21) peptide as substrate incubated for 30 mins in presence of ATP by ADP-Glo kinase assay.

The target of assay [14] is Glycogen synthase kinase-3 beta (Homo sapiens) (UniProt P49841). The assay can be described thus: Inhibition of human recombinant GSK-3 beta expressed in baculovirus-infected Sf9 cells assessed as enzyme residual activity using YRRAAVPPSPSLSRHSSPHQSpEDEEE as substrate at 10 uM incubated for 30 mins in presence of ATP by ADP-Glo kinase assay.
The target of assay [15] is T1, Cyclin-dependent kinase 5/CDK5 activator 1 (Homo sapiens). The assay can be described thus: Inhibition of human recombinant CDK5/p25 expressed in bacteria assessed as enzyme residual activity using histone H1 as substrate at 10 uM incubated for 30 mins in presence of ATP by ADP-Glo kinase assay.

As a reminder, the IC50 is the point on the concentration scale where inhibition reaches its midpoint.

Sequence of Casein kinase I isoform epsilon (Homo sapiens) (P49674 whole entry, looked up, canonical isoform): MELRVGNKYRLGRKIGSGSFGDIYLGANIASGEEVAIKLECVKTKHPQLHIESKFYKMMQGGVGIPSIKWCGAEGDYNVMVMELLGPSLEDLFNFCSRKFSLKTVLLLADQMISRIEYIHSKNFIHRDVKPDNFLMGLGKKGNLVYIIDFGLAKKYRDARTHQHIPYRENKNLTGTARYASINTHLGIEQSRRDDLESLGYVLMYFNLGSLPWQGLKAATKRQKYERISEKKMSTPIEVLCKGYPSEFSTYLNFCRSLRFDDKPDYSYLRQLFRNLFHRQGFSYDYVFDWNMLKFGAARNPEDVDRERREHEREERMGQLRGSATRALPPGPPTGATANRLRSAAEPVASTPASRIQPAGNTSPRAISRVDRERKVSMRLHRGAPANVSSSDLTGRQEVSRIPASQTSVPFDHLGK
T2 sequence (P11309 whole entry, looked up, canonical isoform): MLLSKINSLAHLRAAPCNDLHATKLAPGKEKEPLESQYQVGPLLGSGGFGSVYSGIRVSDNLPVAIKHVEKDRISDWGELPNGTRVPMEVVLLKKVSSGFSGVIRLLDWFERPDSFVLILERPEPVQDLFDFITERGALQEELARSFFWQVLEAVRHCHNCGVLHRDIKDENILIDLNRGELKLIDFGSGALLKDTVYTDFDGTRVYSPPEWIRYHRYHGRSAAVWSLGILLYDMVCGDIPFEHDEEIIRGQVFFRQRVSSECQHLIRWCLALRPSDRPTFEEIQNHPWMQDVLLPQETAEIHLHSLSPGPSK
Sequence of Dual specificity protein kinase CLK1 (Mus musculus) (P22518 whole entry, looked up): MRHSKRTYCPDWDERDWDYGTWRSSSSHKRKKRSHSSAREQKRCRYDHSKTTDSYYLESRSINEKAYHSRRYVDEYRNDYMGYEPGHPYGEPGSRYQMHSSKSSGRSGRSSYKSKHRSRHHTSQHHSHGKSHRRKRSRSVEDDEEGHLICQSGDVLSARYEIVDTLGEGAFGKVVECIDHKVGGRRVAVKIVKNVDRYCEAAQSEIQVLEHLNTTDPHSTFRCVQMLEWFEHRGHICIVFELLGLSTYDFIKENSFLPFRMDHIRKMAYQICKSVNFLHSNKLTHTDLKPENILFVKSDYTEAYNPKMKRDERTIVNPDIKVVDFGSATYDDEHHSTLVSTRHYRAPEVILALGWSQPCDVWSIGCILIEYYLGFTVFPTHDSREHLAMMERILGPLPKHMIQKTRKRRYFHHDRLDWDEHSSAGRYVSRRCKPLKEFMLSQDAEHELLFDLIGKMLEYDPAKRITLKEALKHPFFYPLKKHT
T1 sequence (Q00535 whole entry): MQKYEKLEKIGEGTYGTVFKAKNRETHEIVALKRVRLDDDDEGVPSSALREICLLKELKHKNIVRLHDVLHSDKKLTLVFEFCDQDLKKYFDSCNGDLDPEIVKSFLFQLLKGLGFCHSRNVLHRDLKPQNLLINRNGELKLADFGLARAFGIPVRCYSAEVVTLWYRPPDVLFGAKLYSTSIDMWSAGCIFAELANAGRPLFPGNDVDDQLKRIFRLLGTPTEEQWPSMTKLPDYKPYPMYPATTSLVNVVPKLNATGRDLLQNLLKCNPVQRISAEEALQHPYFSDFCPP
T1 sequence (Q15078 99-307 partner limits assumed): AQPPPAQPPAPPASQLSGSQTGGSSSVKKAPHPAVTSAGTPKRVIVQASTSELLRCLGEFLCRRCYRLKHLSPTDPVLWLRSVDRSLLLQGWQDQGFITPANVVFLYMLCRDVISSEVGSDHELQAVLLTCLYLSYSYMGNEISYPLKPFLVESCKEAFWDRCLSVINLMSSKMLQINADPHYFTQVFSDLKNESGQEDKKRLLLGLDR

Consider `Cn1cc(I)c2cc3ccncc3cc21`, for which the Activity came to 100% in assay [1]; 81% in [2]; 95% in [3]; 48% in [4]; 72% in assay [5]; 22% in [6]. The Activity worked out at 61% in [7]; 26% in assay [8]; 57% in assay [9]; 46% in [10]; 14% in [11]; 26% in assay [12]. In addition, the Activity in assay [14] came to 60%; in assay [15], 22%. Besides, the IC50 in [13] worked out at 0.243 µM.
In the case of `COc1ncc2cc3cnccc3c([N+](=O)[O-])c2n1`, the Activity came to 53% in [5]; 8% in [6]; 43% in assay [8]; 20% in assay [11]; 55% in [12]; 29% in assay [14]. For the same compound, in assay [15], the Activity amounted to 80%.
Turning to `CCNCc1c[nH]c2cc3cnccc3cc12`, the Activity is 100% in assay [1]; 76% in assay [2]; 76% in [4]; 100% in [5]; 80% in [6]; 94% in [7]. Further, the Activity worked out at 37% in assay [8]; 74% in assay [9]; 80% in assay [10]; 63% in [11]; 74% in [12]; 80% in assay [14]. Further, the Activity in assay [15] was determined as 89%.
In the case of `c1cc2cc3cc[nH]c3cc2cn1`, the Activity in assay [1] came to 97%; in assay [2], 100%; in assay [3] it was 100%; in assay [4], 90%; in assay [5], 90%; in [6], 67%. Further, the Activity in [7] was found to be 87%; in assay [8], 34%; in assay [9], 76%; in [10], 99%; in [11], 37%; in assay [12] it was 45%. Besides, the Activity came out at 100% in assay [14] and 98% in assay [15].
Consider `Clc1c[nH]c2cc3cnccc3cc12`, for which the Activity in assay [1] was 100%; in assay [2], 92%; in assay [3] it was 100%; in assay [4], 63%; in [5], 82%; in assay [6], 39%. Besides, the Activity in assay [7] is 78%; in assay [8], 25%; in [9] it was 62%; in assay [10] it was 61%; in assay [11], 21%; in assay [12], 16%. For the same compound, the Activity in assay [14] worked out at 82%; in [15] it was 68%.
Regarding `Nc1cc2cc3ccncc3cc2[nH]1`, the Activity in [1] is 79%; in assay [2] it was 69%; in assay [3], 89%; in [4], 100%; in assay [5], 52%; in [6], 20%. For the same compound, the Activity was determined as 73% in [7]; 27% in [8]; 74% in assay [9]; 100% in assay [10]; 39% in assay [11]; 88% in assay [12]. Also, the Activity in assay [14] came to 64%; in assay [15], 99%.
In the case of `OCc1c[nH]c2cc3cnccc3cc12`, the Activity turned out to be 100% in assay [1]; 84% in [2]; 100% in assay [4]; 98% in assay [5]; 55% in [6]; 96% in [7]. Moreover, the Activity in assay [8] amounted to 55%; in assay [9], 81%; in [10], 77%; in [11] it was 62%; in [12], 100%; in [14], 81%. Moreover, in [15], the Activity was found to be 94%. The IC50 in [13] was 0.819 µM.
Consider `NCc1c[nH]c2cc3cnccc3cc12`, for which the Activity is 99% in assay [1]; 94% in [2]; 100% in [3]; 97% in assay [4]; 96% in [5]; 86% in assay [6]. Also, the Activity in [7] turned out to be 99%; in [8], 58%; in [9], 93%; in [10], 77%; in [11], 62%; in assay [12] it was 84%. Further, the figures for the Activity in assay [14] and in [15] were 80% and 94%, respectively.
For `CN(C)Cc1c[nH]c2cc3cnccc3cc12`, the Activity was found to be 100% in assay [1]; 78% in assay [2]; 100% in assay [3]; 66% in assay [4]; 99% in [5]; 62% in assay [6]. Further, the Activity in [7] was found to be 91%; in assay [8], 18%; in assay [9] it was 57%; in assay [10] it was 74%; in assay [11] it was 67%; in assay [12], 67%. The Activity amounted to 66% in [14] and 97% in [15].
On to `CNCc1c[nH]c2cc3cnccc3cc12`, for which the Activity in [1] worked out at 100%; in [2], 87%; in assay [3], 93%; in assay [4] it was 89%; in [5], 98%; in assay [6], 74%. The Activity in [7] worked out at 95%; in [8] it was 37%; in assay [9], 58%; in assay [11], 92%; in assay [12], 90%; in assay [14] it was 83%. The Activity in assay [15] is 88%.
For `CCN(CC)Cc1c[nH]c2cc3cnccc3cc12`, the Activity was 98% in [1]; 79% in assay [2]; 65% in assay [4]; 100% in [5]; 84% in [6]; 89% in assay [7]. Also, the Activity in assay [8] came to 51%; in assay [9], 86%; in assay [10], 89%; in assay [11], 76%; in assay [12], 47%; in assay [14] it was 77%. For the same compound, the Activity in assay [15] came to 100%.
